Experimental data from US20240299698A1, “PREVENTION AND TREATMENT OF POST-OPERATIVE COGNITIVE DYSFUNCTION (POCD)” (Noetix Pharma LLC, priority 2022, published 2024).

Test system: mouse model of (POCD)
Assay: Fear conditioning cued testing in laparotomy mouse model of POCD
Assay type: in vivo, Male C57BI/6 mice
Settings: PSD3
Text: To induce POCD, mice were anesthetized with isoflurane and maintained at a surgical plane of anesthesia (2-2.5%). The abdomen was shaved and cleaned/disinfected with both betadine and ethanol (70%). A 1.5 cm vertical incision was made along the midline of the abdomen, perforating the skin and the peritoneal cavity. A sterile blunt probe was inserted into the cavity, and the abdominal viscera and musculature were manipulated for five minutes. Abdominal muscles and skin were sutured, polysporin and topical lidocaine were applied to the incision site, and buprenorphine (0.1 mg/kg s.c.) was administered. Animals were placed into a clean, pre-warmed home cage for recovery and housed singly thereafter.
Fear conditioning is a commonly used test of associative learning where a […] stimulus is paired with an aversive unconditioned stimulus, resulting in a freezing response that can be subsequently quantified. Training occurred on the day prior to surgery, context testing on PSD1 (i.e., 2 days after training) and PSD3 (i.e., 4 days after training), and cued testing on PSD3 at a time point three hours after the final context test. For training and context testing, mice were placed in an operant chamber (Med Associates). For cued testing, mice were placed into a novel arena with novel external environment and scent.
Fear conditioning training was performed to generate an association between a neutral “conditional” stimulus (80 dB tone) with an aversive “unconditional” stimulus (0.4 mA shock). Before training, the system was tested to confirm proper operation of the shock and tone. During training, the testing environment was kept quiet and well controlled. Temperature and humidity levels were kept constant and the experimenter was not visible from the operant chamber, which was cleaned between animals. The training protocol was as follows: 1. Each mouse was habituated to the testing room for 20 minutes. 2. Video recording was initiated and the animal's ID card was recorded. 3. Each mouse was placed into the operant chamber and the training protocol was implemented as follows: a. 120 seconds; no stimuli (habituation to the chamber); b. 20 seconds, tone presentation (80 dB); c. 20 seconds, no stimuli (trace delay period); d. 2 seconds, foot shock (0.4 mA); e. 90 seconds, no stimuli (intertrial interval); f. repeat steps a-d followed by a final 30 second no stimuli period. 4. The mouse was returned to its home cage.
The purpose of cued testing is to evaluate cued memory for an aversive stimulus. […]
Cued testing was performed as follows: 1. […] Video recording was initiated and the animal's ID card was recorded. […]

## Cc1ccc(=O)n(-c2ccccc2)c1 [pirfenidone, 5-methyl-1-phenyl-2-(1H)-pyridone]
Acute (400 mg/kg p.o. single dose) compared to Chronic pirfenidone and Disease controls, longer freeze times
  freezing during cued testing (overall measures): increased mean performance
Acute compared to Disease Control mice, longer freeze times
  freezing time, cued testing, post-tone period: increased mean performance
Chronic (400 mg/kg initial; 200 mg/kg p.o. 1x/day)
  freezing during cued testing (overall measures): performed more similarly to Disease Control
Chronic vs Normal Controls, p=0.088
  freezing time, cued testing, post-tone period: trend toward decreased freezing times
